From ChEMBL document CHEMBL5233212, “Recent advance in the development of novel, selective and potent FGFR inhibitors” (Eur J Med Chem, 2020) come the findings set out here.

The structures appear in SMILES notation.

Assay [1] addresses Fibroblast growth factor receptor (Homo sapiens, UniProt P22607+P11362+P22455+P21802). The assay can be described thus: Inhibition of FGFR (unknown origin) using […] incubated for 60 mins by Kinase-Glo Plus luminescence assay. In kind it is protein assay.
The target of assay [2] is T1, Fibroblast growth factor receptor 1 (Homo sapiens, UniProt P11362). The assay can be described thus: Inhibition of human recombinant FGFR1 using Poly (Glu, Tyr)4:1 as substrate at 10 nM incubated for 90 mins in presence of ATP by ELISA based spectrophotometer assay. (In general: In an ELISA, binding on a coated surface is turned into a signal by an enzyme label.)
Target sequence in this assay (P11362 22-822 limits assumed): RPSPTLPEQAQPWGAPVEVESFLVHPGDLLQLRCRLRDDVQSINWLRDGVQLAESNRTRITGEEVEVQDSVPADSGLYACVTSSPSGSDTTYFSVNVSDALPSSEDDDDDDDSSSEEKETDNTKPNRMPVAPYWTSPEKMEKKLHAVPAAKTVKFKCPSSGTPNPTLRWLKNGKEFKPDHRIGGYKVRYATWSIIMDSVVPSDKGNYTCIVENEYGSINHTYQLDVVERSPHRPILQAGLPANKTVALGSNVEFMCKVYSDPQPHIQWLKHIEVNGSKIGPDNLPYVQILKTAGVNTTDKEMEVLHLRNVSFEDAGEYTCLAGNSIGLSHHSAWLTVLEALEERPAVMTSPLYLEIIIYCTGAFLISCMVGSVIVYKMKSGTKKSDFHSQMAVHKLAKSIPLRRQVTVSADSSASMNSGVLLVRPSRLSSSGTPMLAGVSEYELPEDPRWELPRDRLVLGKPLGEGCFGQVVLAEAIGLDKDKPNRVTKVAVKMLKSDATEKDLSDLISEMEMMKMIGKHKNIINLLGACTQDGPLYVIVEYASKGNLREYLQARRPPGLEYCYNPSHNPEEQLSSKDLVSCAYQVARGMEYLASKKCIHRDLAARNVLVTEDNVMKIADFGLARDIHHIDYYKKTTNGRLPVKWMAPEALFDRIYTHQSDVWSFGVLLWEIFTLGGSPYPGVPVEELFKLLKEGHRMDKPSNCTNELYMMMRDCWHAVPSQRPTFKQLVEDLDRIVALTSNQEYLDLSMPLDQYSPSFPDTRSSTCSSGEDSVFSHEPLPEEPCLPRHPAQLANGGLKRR
Assay [3] deals with T1, Fibroblast growth factor receptor 1. In words: Inhibition of FGFR1 (unknown origin) in presence of ATP by caliper mobility shift assay.
Target sequence in this assay (P11362 whole entry): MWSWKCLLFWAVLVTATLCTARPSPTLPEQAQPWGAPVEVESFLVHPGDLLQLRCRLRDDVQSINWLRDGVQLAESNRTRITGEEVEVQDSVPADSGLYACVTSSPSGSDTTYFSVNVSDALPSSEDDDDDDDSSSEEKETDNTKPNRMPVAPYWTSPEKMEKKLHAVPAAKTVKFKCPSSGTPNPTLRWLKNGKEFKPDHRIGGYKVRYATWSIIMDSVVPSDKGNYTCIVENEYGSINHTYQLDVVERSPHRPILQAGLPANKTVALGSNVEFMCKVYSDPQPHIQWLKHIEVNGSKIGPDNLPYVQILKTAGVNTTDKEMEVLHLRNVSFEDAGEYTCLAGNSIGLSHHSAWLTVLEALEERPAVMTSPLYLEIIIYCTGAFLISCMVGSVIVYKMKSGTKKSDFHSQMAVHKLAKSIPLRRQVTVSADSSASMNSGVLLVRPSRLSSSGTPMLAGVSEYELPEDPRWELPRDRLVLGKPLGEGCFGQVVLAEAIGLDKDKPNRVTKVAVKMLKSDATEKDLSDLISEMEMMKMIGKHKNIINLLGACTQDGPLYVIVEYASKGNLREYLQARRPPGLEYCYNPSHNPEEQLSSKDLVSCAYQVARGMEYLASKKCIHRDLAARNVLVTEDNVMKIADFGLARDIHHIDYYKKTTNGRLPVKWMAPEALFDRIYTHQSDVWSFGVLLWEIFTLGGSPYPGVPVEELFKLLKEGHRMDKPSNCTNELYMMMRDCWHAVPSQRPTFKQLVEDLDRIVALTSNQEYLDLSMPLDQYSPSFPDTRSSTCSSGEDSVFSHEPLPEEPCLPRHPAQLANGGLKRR
Assay [4] deals with Tyrosine-protein kinase BTK (Homo sapiens, UniProt Q06187). The assay can be described thus: Inhibition of human BTK (382 to 659 residues) expressed in baculovirus infected Sf21 insect cells preincubated for 15 mins followed by ATP addition and measured upto 180 mins by microfluidic capillary electrophoresis analysis.
Another assay has as its system SNU-16. In words: Antiproliferative activity against human SNU-16 cells assessed as inhibition of cell growth incubated for 72 hrs by MTT colorimetric assay. It is filed as functional, cell-based. The conditions noted are these: SNU-16, 72 h.
In a further assay the test system is RT-112. The assay can be described thus: Antiproliferative activity against human RT-112 cells assessed as inhibition of cell growth incubated for 72 hrs by MTT colorimetric assay. The settings on record: RT-112, 72 h. In kind it is functional, cell-based.
The next assay has as its system NCI-H1581. The assay can be described thus: Antiproliferative activity against human NCI-H1581 cells assessed as inhibition of cell growth incubated for 72 hrs by MTT colorimetric assay. In kind it is functional, cell-based. The settings on record: NCI-H1581, 72 h. Background: Tetrazolium dyes change colour on reduction, which living cells bring about.
A further assay concerns KG-1. The assay can be described thus: Antiproliferative activity against human KG-1 cells assessed as inhibition of cell growth incubated for 72 hrs by MTT colorimetric assay. In kind it is functional, cell-based. The conditions noted are these: KG-1, 72 h.
Assay [5] is described as follows: Antiproliferative activity against human KATO III stomach cancer cell line assessed as inhibition of cell growth incubated for 72 hrs by MTT colorimetric assay. In kind it is functional, cell-based.

The IC50 is the concentration needed to halve the response being measured. One may read the inhibition as the share of the control response that was lost under treatment.

Chain of Tyrosine-protein kinase BTK (Q06187 whole entry, the tested form may be a part): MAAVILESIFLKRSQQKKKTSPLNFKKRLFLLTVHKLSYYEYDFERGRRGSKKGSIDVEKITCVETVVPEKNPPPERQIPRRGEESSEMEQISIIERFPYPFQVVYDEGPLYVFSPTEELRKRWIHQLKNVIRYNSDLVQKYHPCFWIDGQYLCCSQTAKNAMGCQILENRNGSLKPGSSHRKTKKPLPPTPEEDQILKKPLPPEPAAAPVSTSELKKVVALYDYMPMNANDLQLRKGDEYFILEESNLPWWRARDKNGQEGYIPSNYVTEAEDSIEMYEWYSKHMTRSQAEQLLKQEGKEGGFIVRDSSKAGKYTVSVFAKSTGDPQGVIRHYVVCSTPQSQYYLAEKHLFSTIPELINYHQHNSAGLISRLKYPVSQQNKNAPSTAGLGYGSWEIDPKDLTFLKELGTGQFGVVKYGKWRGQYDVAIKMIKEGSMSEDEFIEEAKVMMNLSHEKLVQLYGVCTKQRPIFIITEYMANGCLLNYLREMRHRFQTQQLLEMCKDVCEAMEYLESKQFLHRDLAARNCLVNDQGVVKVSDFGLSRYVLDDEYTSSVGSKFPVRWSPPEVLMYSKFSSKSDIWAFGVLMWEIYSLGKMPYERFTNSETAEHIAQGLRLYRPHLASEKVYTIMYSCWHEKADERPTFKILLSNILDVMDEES

As to `Cc1nc(OCC(=O)N/N=C/c2ccc(Cl)cc2)c2c(C)nn(-c3ccccc3)c2n1`, the 50% inhibitory concentration (IC50) in [1] was found to be 9590 nM.
Regarding `O=S(=O)(c1cn(CCF)cn1)n1ncc2ncc(-c3cn[nH]c3)nc21`, the inhibition in [2] is 93.3%.
Turning to `COc1cc(/C=C2\CC/C(=C\c3ccc(OC(=O)C(C)C)c(OC)c3)C2=O)ccc1OC(=O)C(C)C`, in [3], the IC50 is 2600 nM.
On to `CNc1ncc2cc(-c3cc(OC)cc(OC)c3Cl)c(=O)n(CCc3ccc(NC(=O)/C(C#N)=C/C(C)(C)N)cc3)c2n1`, for which, in assay [4], the IC50 was determined as 0.5 nM.
For the compound `Cc1n[nH]c2ccc(-c3cc(N[C@@H](CO)c4ccccc4)cnc3-c3cc(F)ccc3O)cc12`, the IC50 with SNU-16 is 24.8 nM; in the assay on RT-112 it was 122 nM; with NCI-H1581, 391 nM; with KG-1, 14.5 nM; in [5], 156 nM.
On to `CCC(=O)Oc1ccc(/C=C2\CC/C(=C\c3ccc(OC(=O)CC)c(OC)c3)C2=O)cc1OC`, for which, in [3], the IC50 came to 3000 nM.
Regarding `Cn1cc(-c2cnc3cnn(S(=O)(=O)c4ccccc4)c3n2)cn1`, in assay [2], the inhibition is more than 90%.
